Results: ChEMBL document CHEMBL5356974, “Development of MPS1 Inhibitors: Recent Advances and Perspectives” (J Med Chem, 2023)

Legend:
[1] = molecular target: T1, Dual specificity protein kinase TTK (Homo sapiens, UniProt P33981); assay: Inhibition of full-length MPS1 (unknown origin) using fluorescein-labeled MBP-derived peptide as substrate preincubated for 1 hr followed by substrate addition measured after 2 hrs in presence of ATP by FP assay
T1 sequence (P33981 whole entry): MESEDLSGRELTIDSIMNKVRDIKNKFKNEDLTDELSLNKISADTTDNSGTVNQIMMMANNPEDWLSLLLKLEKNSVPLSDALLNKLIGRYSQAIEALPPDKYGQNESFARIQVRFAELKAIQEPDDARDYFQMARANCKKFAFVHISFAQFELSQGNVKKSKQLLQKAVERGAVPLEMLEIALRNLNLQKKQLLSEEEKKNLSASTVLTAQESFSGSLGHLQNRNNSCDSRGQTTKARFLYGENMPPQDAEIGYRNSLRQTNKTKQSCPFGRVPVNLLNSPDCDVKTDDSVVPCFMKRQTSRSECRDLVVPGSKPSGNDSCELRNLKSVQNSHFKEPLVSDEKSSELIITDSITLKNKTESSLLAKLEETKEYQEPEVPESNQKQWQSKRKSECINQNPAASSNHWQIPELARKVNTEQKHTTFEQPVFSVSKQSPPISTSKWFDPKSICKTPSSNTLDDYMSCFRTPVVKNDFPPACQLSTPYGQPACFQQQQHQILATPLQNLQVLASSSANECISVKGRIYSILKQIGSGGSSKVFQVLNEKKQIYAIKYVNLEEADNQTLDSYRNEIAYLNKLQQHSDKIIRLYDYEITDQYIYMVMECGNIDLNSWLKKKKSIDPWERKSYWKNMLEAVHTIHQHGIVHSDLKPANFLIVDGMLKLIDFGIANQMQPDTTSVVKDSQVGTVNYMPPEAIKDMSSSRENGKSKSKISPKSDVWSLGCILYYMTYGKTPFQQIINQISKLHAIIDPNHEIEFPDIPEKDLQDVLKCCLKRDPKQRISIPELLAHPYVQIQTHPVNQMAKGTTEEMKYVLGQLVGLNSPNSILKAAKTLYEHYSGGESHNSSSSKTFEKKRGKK

[2] = molecular target: T2, Serine/threonine-protein kinase NLK (Homo sapiens) (UniProt Q9UBE8); assay: Inhibition of NLK (unknown origin) relative to control; settings: concentration not given here
T2 sequence (whole entry): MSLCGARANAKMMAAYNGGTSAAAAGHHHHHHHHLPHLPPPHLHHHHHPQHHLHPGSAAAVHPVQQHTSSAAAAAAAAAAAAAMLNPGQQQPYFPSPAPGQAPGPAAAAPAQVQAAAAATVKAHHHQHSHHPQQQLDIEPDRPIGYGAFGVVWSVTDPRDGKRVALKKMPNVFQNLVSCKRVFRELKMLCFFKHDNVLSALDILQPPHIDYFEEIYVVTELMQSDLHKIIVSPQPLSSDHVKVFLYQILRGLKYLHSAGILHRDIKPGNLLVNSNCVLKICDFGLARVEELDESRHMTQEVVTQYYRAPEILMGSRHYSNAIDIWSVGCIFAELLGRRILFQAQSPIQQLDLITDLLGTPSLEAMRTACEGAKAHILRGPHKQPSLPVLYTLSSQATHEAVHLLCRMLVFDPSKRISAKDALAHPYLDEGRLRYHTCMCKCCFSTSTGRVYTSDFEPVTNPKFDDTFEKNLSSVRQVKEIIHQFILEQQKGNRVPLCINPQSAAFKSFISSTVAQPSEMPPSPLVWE

[3] = molecular target: Mitogen-activated protein kinase 10 (Homo sapiens) (UniProt P53779); assay: Inhibition of JNK3 (unknown origin) relative to control; settings: concentration not given here
[4] = molecular target: Mitogen-activated protein kinase 9 (Homo sapiens) (UniProt P45984); assay: Inhibition of JNK2 (unknown origin) relative to control; settings: concentration not given here
[5] = molecular target: T3, Dual specificity protein kinase TTK (Homo sapiens) (UniProt P33981); settings: dose 100.0 nM
T3 sequence (whole entry): T1 sequence (P33981 whole entry)

Chain of Mitogen-activated protein kinase 10 (Homo sapiens) (P53779 whole entry): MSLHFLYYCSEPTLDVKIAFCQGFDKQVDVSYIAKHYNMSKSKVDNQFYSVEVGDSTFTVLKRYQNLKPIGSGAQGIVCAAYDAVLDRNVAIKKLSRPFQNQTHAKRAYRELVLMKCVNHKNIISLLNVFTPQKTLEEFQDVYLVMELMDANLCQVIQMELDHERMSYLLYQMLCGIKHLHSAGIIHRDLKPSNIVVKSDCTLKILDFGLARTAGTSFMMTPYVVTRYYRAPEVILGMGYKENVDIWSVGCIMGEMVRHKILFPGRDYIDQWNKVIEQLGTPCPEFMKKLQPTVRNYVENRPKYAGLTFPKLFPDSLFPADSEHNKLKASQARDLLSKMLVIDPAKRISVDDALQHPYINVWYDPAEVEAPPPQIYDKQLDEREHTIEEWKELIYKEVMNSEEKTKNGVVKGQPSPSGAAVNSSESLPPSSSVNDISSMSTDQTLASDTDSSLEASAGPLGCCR
Chain of Mitogen-activated protein kinase 9 (Homo sapiens) (P45984 whole entry, looked up): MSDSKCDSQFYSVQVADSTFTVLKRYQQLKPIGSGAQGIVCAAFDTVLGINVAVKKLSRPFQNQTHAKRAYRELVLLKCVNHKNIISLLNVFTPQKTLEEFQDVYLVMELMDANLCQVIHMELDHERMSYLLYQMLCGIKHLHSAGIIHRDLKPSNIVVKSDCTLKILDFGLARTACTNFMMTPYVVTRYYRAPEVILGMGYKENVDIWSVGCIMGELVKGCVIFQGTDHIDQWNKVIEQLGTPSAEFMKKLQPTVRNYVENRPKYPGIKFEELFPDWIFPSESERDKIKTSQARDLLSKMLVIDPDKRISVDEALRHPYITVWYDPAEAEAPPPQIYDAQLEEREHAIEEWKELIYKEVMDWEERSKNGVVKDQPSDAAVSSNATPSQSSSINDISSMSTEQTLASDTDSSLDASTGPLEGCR

IC50 [1] | inhibition [2] | inhibition [3] | inhibition [4] | inhibition [5] | Structure (SMILES)
7.6 nM |  |  |  |  | CN1CCC(c2ccc(Nc3ncc4c(n3)-n3ccc(C(N)=O)c3CC4)cc2)CC1
 | 80% | 80% | 80% |  | Cn1cc(-c2cc3cnc(Nc4ccc(-c5cncn5C)cc4Cl)cc3n2C(=O)OC(C)(C)C)cn1
 |  |  |  | > 90% | CCc1nn(CCOCCOC)c(CC)c1NC(=O)c1ccn2c1CCc1cnc(Nc3ccc(N4CCN(C)CC4)cc3OC)nc1-2
1.2 nM |  |  |  | > 90% | CCc1n[nH]c(CC)c1NC(=O)c1ccn2c1CCc1cnc(Nc3ccc(N4CCN(C)CC4)cc3OC)nc1-2
